Results: PubChem BioAssay (NCI)
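48-hour exposure; five concentrations; linearly interpolated endpoints. At the TGI there is no net growth.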

Columns and labels:
Assay in all cases: growth of human tumour cells (NCI), 48 h
[1] = test system: MOLT-4 leukemia
[2] = test system: COLO 205 colon
[3] = test system: IGROV1 ovarian
[4] = test system: MDA-MB-435
[5] = test system: BT-549 breast
[6] = test system: HOP-62 NSCLC
[7] = test system: UACC-257 melanoma
[8] = test system: SW-620 colon
[9] = test system: SR leukemia
[10] = test system: NCI-H23 lung
[11] = test system: DU-145 prostate
[12] = test system: SF-539 CNS
[13] = test system: LOX IMVI melanoma
[14] = test system: RXF 393 renal
[15] = test system: SF-295 CNS
[16] = test system: NCI-H226 lung
[17] = test system: MDA-N
[18] = test system: HS 578T breast
[19] = test system: SNB-75 CNS
[20] = test system: HOP-92 NSCLC
[21] = test system: MALME-3M melanoma
[22] = test system: SK-MEL-5 melanoma
[23] = test system: 786-0 renal
[24] = test system: MDA-MB-231 breast
[25] = test system: T-47D breast
[26] = test system: OVCAR-5 ovarian
[27] = test system: A498 renal
[28] = test system: HT29 colon
[29] = test system: CCRF-CEM leukemia
[30] = test system: SN12C renal
[31] = test system: OVCAR-3 ovarian
[32] = test system: UACC-62 melanoma
[33] = test system: NCI-H522 lung
[34] = test system: TK-10 renal
[35] = test system: OVCAR-4 ovarian
[36] = test system: HCC-2998 colon
[37] = test system: CAKI-1 renal
[38] = test system: K-562 leukemia
[39] = test system: NCI-H460 lung
[40] = test system: ACHN renal
[41] = test system: OVCAR-8 ovarian
[42] = test system: SNB-19 CNS
[43] = test system: SK-MEL-2 melanoma
[44] = test system: SK-OV-3 ovarian
[45] = test system: HCT-15 colon
[46] = test system: PC-3 prostate
[47] = test system: EKVX NSCLC
[48] = test system: U251 CNS
[49] = test system: SF-268 CNS
[50] = test system: MCF7 breast
[51] = test system: HCT-116 colon
[52] = test system: A549 NSCLC
[53] = test system: HL-60(TB) leukemia
[54] = test system: M14 melanoma
[55] = test system: KM12 colon
[56] = test system: NCI/ADR-RES ovarian
[57] = test system: UO-31 renal
[58] = test system: SK-MEL-28 melanoma
[59] = test system: RPMI-8226 leukemia

SMILES: O=[N+]([O-])c1ccccc1S(=O)(=O)c1cc(O)cc2c1NCCC2
- TGI [1]: 13.6 µM
- TGI [2]: 34.3 µM
- TGI [3]: 30.8 µM
- TGI [4]: 41.4 µM
- TGI [5]: 26.3 µM
- TGI [6]: 40.3 µM
- TGI [7]: 26.8 µM
- TGI [8]: 32.6 µM
- TGI [9]: 5.37 µM
- TGI [10]: 49 µM
- TGI [11]: 35.7 µM
- TGI [12]: 34.8 µM
- TGI [13]: 38.4 µM
- TGI [14]: 31.7 µM
- TGI [15]: > 59.1 µM
- TGI [16]: 62.8 µM
- TGI [17]: 38.8 µM
- TGI [18]: > 86.7 µM
- TGI [19]: 33.5 µM
- TGI [20]: 16.8 µM
- TGI [21]: 37.9 µM
- TGI [22]: 27.1 µM
- TGI [23]: 25.9 µM
- TGI [24]: 32.4 µM
- TGI [25]: 24.1 µM
- TGI [26]: 40 µM
- TGI [27]: 18.4 µM
- TGI [28]: 40.9 µM
- TGI [29]: 5.6 µM
- TGI [30]: 41.5 µM
- TGI [31]: 18.1 µM
- TGI [32]: 28.9 µM
- TGI [33]: 24.5 µM
- TGI [34]: 36.7 µM
- TGI [35]: 29.3 µM
- TGI [36]: 51.1 µM
- TGI [37]: 63.3 µM
- TGI [38]: 7.54 µM
- TGI [39]: 53 µM
- TGI [40]: 27.4 µM
- TGI [41]: 41.6 µM
- TGI [42]: 65.6 µM
- TGI [43]: 51.7 µM
- TGI [44]: > 31.6 µM
- TGI [45]: 44.4 µM
- TGI [46]: 28.7 µM
- TGI [47]: 30.7 µM
- TGI [48]: 40.1 µM
- TGI [49]: 42.6 µM
- TGI [50]: 29.8 µM
- TGI [51]: 20.9 µM
- TGI [52]: > 85.9 µM
- TGI [53]: > 23 µM
- TGI [54]: 30.8 µM
- TGI [55]: 34.3 µM
- TGI [56]: > 79.3 µM
- TGI [57]: 29.8 µM
- TGI [58]: 33.9 µM

SMILES: CN(C)Cc1cc(N=Nc2ccccc2)ccc1O
- TGI [1]: > 100 µM
- TGI [2]: > 100 µM
- TGI [3]: > 100 µM
- TGI [4]: > 100 µM
- TGI [5]: > 100 µM
- TGI [6]: > 100 µM
- TGI [7]: 76.9 µM
- TGI [8]: > 100 µM
- TGI [9]: > 100 µM
- TGI [10]: > 100 µM
- TGI [11]: > 100 µM
- TGI [12]: > 100 µM
- TGI [13]: > 100 µM
- TGI [14]: 69.2 µM
- TGI [15]: > 100 µM
- TGI [16]: > 100 µM
- TGI [17]: > 100 µM
- TGI [18]: > 100 µM
- TGI [19]: > 100 µM
- TGI [20]: > 100 µM
- TGI [21]: > 100 µM
- TGI [22]: 29.4 µM
- TGI [23]: > 100 µM
- TGI [24]: > 100 µM
- TGI [25]: > 100 µM
- TGI [26]: > 100 µM
- TGI [27]: 79.1 µM
- TGI [28]: > 100 µM
- TGI [29]: > 100 µM
- TGI [30]: > 100 µM
- TGI [31]: > 100 µM
- TGI [32]: 69.2 µM
- TGI [33]: 73.9 µM
- TGI [34]: > 100 µM
- TGI [36]: > 100 µM
- TGI [37]: > 100 µM
- TGI [38]: 58.1 µM
- TGI [39]: > 100 µM
- TGI [40]: > 100 µM
- TGI [41]: > 100 µM
- TGI [42]: > 100 µM
- TGI [43]: > 100 µM
- TGI [45]: > 100 µM
- TGI [46]: > 100 µM
- TGI [47]: > 100 µM
- TGI [48]: > 100 µM
- TGI [49]: > 100 µM
- TGI [50]: > 100 µM
- TGI [51]: > 100 µM
- TGI [52]: > 100 µM
- TGI [53]: > 100 µM
- TGI [54]: > 100 µM
- TGI [55]: > 100 µM
- TGI [56]: > 100 µM
- TGI [57]: 89.6 µM
- TGI [58]: > 100 µM
- TGI [59]: > 100 µM
